Tested on: carotid artery intimal proliferation
Test: balloon catheter injury of the left carotid artery in spontaneously hypertensive rats; morphometric and DNA analyses of intimal proliferation 14 days post-injury
Assay type: in vivo, male spontaneously hypertensive rats
Conditions: SHR, means ± SEM
Method: Briefly, rats were anesthetized with Metofane (methoxyflurane) and a 2 Fr Fogarty embolectomy catheter was inserted into the left external carotid artery. The catheter was advanced 5 cm, inflated and retracted 3 times, turning the catheter 90^o each time. […] Animals were autopsied following exsanguination with ketamine (40 mg/kg) plus xylazine (10 mg/kg) i.m. anesthesia at specified timepoints following balloon injury.
Standard samples of the control right and balloon injured left carotid arteries were taken for DNA and morphometric analyses. […] The DNA results were expressed as the ratio of the left or ballooned carotid to the right control carotid. Three samples were taken for histology at 2.5 mm intervals cephalad from the DNA sample from each carotid artery and fixed in 4% paraformaldehyde containing 10% sucrose (wt/vol). Paraffin-embedded sections were stained with the Gomori trichrome-aldehyde fuchsin stain and computer-assisted morphometric analyses were performed using a Bioquant System IV image analyzer (R&M Biometrics Inc.). Morphometric measurements included: maximal intimal thickness (mm), intimal cross sectional area (mm²), and intimal cross sectional area/medial cross sectional area. […]

[1] = Exp. 5A, 10 mpk once a day, control see Exp. 1A

Question: For `CCOC(=O)[C@H](CCc1ccccc1)N[C@@H](C)C(=O)N1CC2(C[C@H]1C(=O)O)SCCS2` [compound D, spirapril, reference compound], which “Carotid DNA (ballooned/ control)” value [1] is on record?
Answer: 1.94 ±0.32

Question: And the “Intimal Area” value [1]?
Answer: 0.064 ±0.005 mm^2

Question: And the “Intimal Area/ Medial Area” value [1]?
Answer: 0.500 ±0.049

Question: And the “Maximal Intimal Thickness” value [1]?
Answer: 0.082 ±0.010 mm

Question: What does the source list for `CCOC(=O)[C@H](CCSC)NC(=O)C(CSC(C)=O)Cc1ccccc1C` (stereo partly drawn) [compound B, N-[2-acetylthiomethyl-3-(2-methylphenyl)-propionyl]-methionine ethyl ester]?
Answer: Carotid DNA (ballooned/ control) (Exp. 2, 30 mpk b.i.d.): 3.47 ±0.40; Intimal Area (Exp. 2, 30 mpk b.i.d.): 0.071 ±0.010 mm^2; Intimal Area/ Medial Area (Exp. 2, 30 mpk b.i.d.): 0.441 ±0.052; Maximal Intimal Thickness (Exp. 2, 30 mpk b.i.d.): 0.085 ±0.009 mm; Carotid DNA (ballooned/ control) (Exp. 2A, 10 mpk b.i.d.): 3.12 ±0.22; Intimal Area (Exp. 2A, 10 mpk b.i.d.): 0.106 ±0.010 mm^2; Intimal Area/ Medial Area (Exp. 2A, 10 mpk b.i.d.): 0.719 ±0.062; Maximal Intimal Thickness (Exp. 2A, 10 mpk b.i.d.): 0.112 ±0.012 mm; Carotid DNA (ballooned/ control) (Exp. 4, 10 mpk b.i.d.): 4.38 ±0.73; Intimal Area (Exp. 4, 10 mpk b.i.d.): 0.085 ±0.009 mm^2; Intimal Area/ Medial Area (Exp. 4, 10 mpk b.i.d.): 0.592 ±0.067; Maximal Intimal Thickness (Exp. 4, 10 mpk b.i.d.): 0.095 ±0.012 mm

Question: What does the source list for `CC1(C)OCC(COC(=O)[C@H](Cc2ccccc2)N[C@@H](Cc2ccccc2)C(=O)NCCC(=O)O)O1` (stereo partly drawn) [compound A, N-[N-[(L)-[1-[(2,2-dimethyl-1,3-dioxolan-4-yl)methoxy]carbonyl]-2-phenylethyl]-L-phenylalanyl]-ß-alanine]?
Answer: Carotid DNA (ballooned/ control) (Exp. 1, 90 mpk b.i.d.): 3.16 ±0.35; Intimal Area (Exp. 1, 90 mpk b.i.d.): 0.99 ±0.010 mm^2; Intimal Area/ Medial Area (Exp. 1, 90 mpk b.i.d.): 0.653 ±0.067; Maximal Intimal Thickness (Exp. 1, 90 mpk b.i.d.): 0.104 ±0.011 mm; Carotid DNA (ballooned/ control) (Exp. 1A, 90 mpk b.i.d.): 4.60 ±0.67; Intimal Area (Exp. 1A, 90 mpk b.i.d.): 0.099 ±0.010 mm^2; Intimal Area/ Medial Area (Exp. 1A, 90 mpk b.i.d.): 0.692 ±0.066; Maximal Intimal Thickness (Exp. 1A, 90 mpk b.i.d.): 0.110 ±0.010 mm
